This is an account of results in ChEMBL document CHEMBL1201862, “PubChem BioAssay data set” (2004).

Structures are written as SMILES.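 In this assay, cells in 96-well plates receive the compound at five concentrations for 48 hours. Endpoints are linearly interpolated between the surrounding concentrations. GI50 is the concentration that inhibits growth by half.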 Activity calls are given as the source filed them. No stated cut-off is given here; in the data, active = GI50 up to about 1.1 µM and inactive = higher.

Test systems include HCT-116; RXF 393; M14; HCT-15; SK-MEL-2; UO-31; UACC-257; NCI-H460; 786-0; HL-60; TK-10; NCI-H226; Malme-3M; SNB-75; T47D; OVCAR-4; SF-539; OVCAR-5; SF-295; OVCAR-8.
Common to all, as to experiment: NCI-60 cell line screen, 48 h

For `COc1ccc(C[C@H]2NC(=O)/C=C/C[C@@H]([C@H](C)[C@H]3O[C@@H]3c3ccccc3)OC(=O)[C@H](CC(C)C)OC(=O)[C@H](C)CNC2=O)cc1`, the GI50 with HCT-116 was 1.57e-05 µM (active); in the experiment on RXF 393 it was 9.27e-06 µM (active); in the experiment with M14, 1.72e-05 µM (active); with HCT-15, 4.28e-05 µM; with SK-MEL-2, > 4.42e-05 µM (active); in the experiment with UO-31 it was 4.71e-05 µM (active). Further, the GI50 is > 5.89e-05 µM (active) with UACC-257; 3.13e-05 µM (active) with NCI-H460; 1.25e-05 µM (active) with 786-0; 1.55e-05 µM (active) in the experiment on HL-60; > 0.0001 µM (active) in the experiment on TK-10; > 4.41e-05 µM (active) in the experiment on NCI-H226. The GI50 with Malme-3M is 2.19e-05 µM (active); in the experiment on SNB-75, 1.47e-05 µM (active); in the experiment on T47D, > 0.0001 µM (active); with OVCAR-4, > 0.0001 µM (active); with SF-539, 1.94e-05 µM (active); with OVCAR-5, 3.94e-05 µM (active). Also, the results for the GI50 with SF-295 and in the experiment with OVCAR-8 were 1.07e-05 µM (active) and 1.69e-05 µM (active), respectively.
Regarding `Cc1ccc([S+]([O-])(=Nc2ccccc2)C(C(C)C)C(C)(C)Cl)cc1` (stereo not given), the GI50 in the experiment with HCT-116 was 16.9 µM (inactive); in the experiment with RXF 393 it was 30.1 µM (inactive); in the experiment on M14, 18.9 µM (inactive); in the experiment on HCT-15, 17 µM; with SK-MEL-2 it was 12.5 µM (inactive); in the experiment on UO-31 it was 18.8 µM (inactive). Also, the GI50 is 10.8 µM (inactive) in the experiment with UACC-257; 4.21 µM (inactive) in the experiment on NCI-H460; 24.2 µM (inactive) in the experiment with 786-0; 7.67 µM (inactive) in the experiment on HL-60; 21.4 µM (inactive) in the experiment on TK-10; 2.72 µM (inactive) in the experiment with NCI-H226. The GI50 with Malme-3M was 27.9 µM (inactive); in the experiment with SNB-75, > 50 µM (inactive); with T47D, 23.6 µM (inactive); in the experiment on OVCAR-4 it was 22.2 µM (inactive); with SF-539 it was 15.9 µM (inactive); with OVCAR-5, 22.1 µM (inactive). Moreover, the values for the GI50 in the experiment on SF-295 and in the experiment with OVCAR-8 were 16.3 µM (inactive) and > 50 µM (inactive), respectively.
Regarding `CC1CC(Nc2ccc(Br)cc2)N(C(=O)c2ccc(Br)cc2)O1` (stereo not given), the GI50 in the experiment on HCT-116 was 4.42 µM (inactive); in the experiment on RXF 393, > 10 µM (inactive); in the experiment with M14, > 10 µM (inactive); in the experiment with HCT-15, 0.526 µM; with SK-MEL-2 it was > 10 µM (inactive); in the experiment with UO-31 it was 2.34 µM (inactive). For the same compound, the GI50 was 4.46 µM (inactive) with UACC-257; 7.48 µM (inactive) with NCI-H460; > 10 µM (inactive) in the experiment on 786-0; 3.76 µM (inactive) in the experiment on HL-60; > 10 µM (inactive) in the experiment on TK-10; > 10 µM (inactive) in the experiment on NCI-H226. Further, the GI50 in the experiment on Malme-3M was 6.84 µM (inactive); with SNB-75 it was 8.28 µM (inactive); with T47D, 9.77 µM (inactive); with OVCAR-4, > 10 µM (inactive); in the experiment with SF-539, 3.52 µM (inactive); in the experiment with OVCAR-5 it was 6.37 µM (inactive). Also, the GI50 in the experiment on SF-295 is 2.42 µM (inactive); with OVCAR-8, 7.4 µM (inactive).
For the compound `CC[N+]1(C)CCC(O)(/C=C/c2ccc(OC)cc2)C(C(=O)/C=C/c2ccc(OC)cc2)C1` (stereo not given), the GI50 in the experiment on HCT-116 was 12.7 µM (inactive); in the experiment on RXF 393, 15.1 µM (inactive); with M14, 10.4 µM (inactive); with HCT-15, 9.98 µM; in the experiment with SK-MEL-2 it was 19 µM (inactive); in the experiment on UO-31 it was 12.6 µM (inactive). For the same compound, the GI50 was 17.4 µM (inactive) in the experiment on UACC-257; 9.53 µM (inactive) in the experiment with NCI-H460; 3.13 µM (inactive) in the experiment with 786-0; 1.52 µM (inactive) in the experiment on HL-60; 2.96 µM (inactive) in the experiment on TK-10; 28 µM (inactive) in the experiment with NCI-H226. In addition, the GI50 in the experiment on Malme-3M is 14.4 µM (inactive); with SNB-75, 18.9 µM (inactive); in the experiment with T47D, 5.86 µM (inactive); with OVCAR-4 it was 24.7 µM (inactive); with SF-539, 5.35 µM (inactive); in the experiment with OVCAR-5, 21.2 µM (inactive). In addition, the GI50 in the experiment on SF-295 is 18.6 µM (inactive); in the experiment on OVCAR-8, 23.3 µM (inactive).
As to `O=[N+]([O-])c1cccc2nc3ccccc3c(NCCC[N+]3([O-])CCCCC3)c12`, the GI50 in the experiment with HCT-116 was 0.261 µM (active); in the experiment on RXF 393 it was 0.647 µM (active); in the experiment on M14 it was 1.2 µM (inactive); with HCT-15, 16 µM; in the experiment on SK-MEL-2 it was 0.179 µM (active); with UO-31, 12.9 µM (inactive). Besides, the GI50 with UACC-257 is 0.244 µM (active); in the experiment on NCI-H460 it was 0.279 µM (active); in the experiment with 786-0, 0.438 µM (active); with HL-60 it was 0.745 µM (active); in the experiment with TK-10, 3.06 µM (inactive); with NCI-H226, 0.592 µM (active). Moreover, the GI50 was 0.168 µM (active) in the experiment on Malme-3M; 0.416 µM (active) in the experiment on SNB-75; 0.41 µM (active) in the experiment with T47D; 0.315 µM (active) with OVCAR-4; 0.479 µM (active) with SF-539; 0.498 µM (active) in the experiment on OVCAR-5. Besides, the values for the GI50 in the experiment on SF-295 and with OVCAR-8 were 3.06 µM (inactive) and 1.85 µM (inactive), respectively.
On to `O=[N+]([O-])/C(C(Cl)=C(Cl)Cl)=C(/Cl)SCc1ccccc1`, for which the GI50 in the experiment on HCT-116 is 1.82 µM (inactive); in the experiment on RXF 393 it was 3.01 µM (inactive); in the experiment with M14, 1.83 µM (inactive); with HCT-15 it was 5 µM; in the experiment on SK-MEL-2 it was 22.1 µM (inactive); in the experiment on UO-31, 2.22 µM (inactive). The GI50 with UACC-257 was 3.39 µM (inactive); with NCI-H460 it was 16.3 µM (inactive); in the experiment with 786-0, 1.65 µM (inactive); with HL-60 it was 0.229 µM (active); in the experiment on TK-10, 5.86 µM (inactive); in the experiment with NCI-H226, 25.2 µM (inactive). The GI50 with Malme-3M is 2.47 µM (inactive); in the experiment on SNB-75, 1.02 µM (active); in the experiment on T47D, 14.6 µM (inactive); in the experiment with OVCAR-4, 2.85 µM (inactive); in the experiment on SF-539, 6.62 µM (inactive); with OVCAR-5 it was 5.09 µM (inactive). Further, the GI50 was 34.4 µM (inactive) with SF-295 and 1.34 µM (inactive) in the experiment with OVCAR-8.
For `COC(=O)CN(CC(O)C(NC(C)=O)C(O)C=O)C(=O)OCc1ccccc1` (stereo not given), the GI50 with HCT-116 is > 100 µM (inactive); in the experiment on RXF 393, > 100 µM (inactive); in the experiment on M14 it was > 100 µM (inactive); in the experiment with HCT-15, greater than 31.6 µM; with SK-MEL-2, > 100 µM (inactive); in the experiment on UO-31 it was > 100 µM (inactive). The GI50 in the experiment with UACC-257, in the experiment with NCI-H460, in the experiment on 786-0, with HL-60, in the experiment with TK-10 and in the experiment on NCI-H226 was > 100 µM (inactive) throughout. The GI50 in the experiment with Malme-3M was > 50.5 µM (inactive); in the experiment on SNB-75, > 100 µM (inactive); with T47D it was > 100 µM (inactive); in the experiment with OVCAR-4 it was > 100 µM (inactive); in the experiment with SF-539, > 100 µM (inactive); in the experiment on OVCAR-5 it was > 100 µM (inactive). Further, the GI50 in the experiment on SF-295 and in the experiment with OVCAR-8 was > 100 µM (inactive) throughout.
For `N#Cc1cc2c(n(C3OC(CO)C(O)C(O)C3O)c1=S)CCCCCC2` (stereo not given), the GI50 in the experiment on HCT-116 is > 100 µM (inactive); in the experiment on RXF 393, > 100 µM (inactive); in the experiment with M14 it was > 100 µM (inactive); in the experiment on HCT-15 it was greater than 100 µM; in the experiment on SK-MEL-2, > 100 µM (inactive); in the experiment on UO-31, > 100 µM (inactive). The GI50 in the experiment on UACC-257, in the experiment with NCI-H460, in the experiment with 786-0, in the experiment with HL-60, in the experiment on TK-10 and with NCI-H226 was > 100 µM (inactive) throughout. In addition, the GI50 was > 100 µM (inactive) in the experiment on Malme-3M; > 100 µM (inactive) in the experiment on SNB-75; 80.2 µM (inactive) in the experiment on T47D; > 100 µM (inactive) in the experiment with OVCAR-4; > 100 µM (inactive) in the experiment with SF-539; > 100 µM (inactive) with OVCAR-5. Moreover, the GI50 in the experiment with SF-295 and in the experiment with OVCAR-8 was > 100 µM (inactive) in each case.
For `N#Cc1c(NC(=S)Nc2ccc(Cl)cc2)sc2c1CCN(N1CCc3c(sc(NC(=S)Nc4ccc(Cl)cc4)c3C#N)C1)C2`, the GI50 was 21.6 µM (inactive) with HCT-116; 18.3 µM (inactive) with RXF 393; 11 µM (inactive) in the experiment on M14; 24 µM in the experiment with HCT-15; 20.3 µM (inactive) with SK-MEL-2; 14.9 µM (inactive) in the experiment with UO-31. For the same compound, the GI50 in the experiment on UACC-257 was 29.7 µM (inactive); with NCI-H460, 32.4 µM (inactive); in the experiment on 786-0 it was 21 µM (inactive); in the experiment with HL-60, 30.2 µM (inactive); in the experiment on TK-10, 41 µM (inactive); in the experiment with NCI-H226, 16.1 µM (inactive). Besides, the GI50 was 55.2 µM (inactive) in the experiment on Malme-3M; 69 µM (inactive) in the experiment with SNB-75; 21.6 µM (inactive) in the experiment with T47D; 59.3 µM (inactive) in the experiment with OVCAR-4; 16.8 µM (inactive) with SF-539; 13.8 µM (inactive) in the experiment on OVCAR-5. Moreover, the GI50 in the experiment on SF-295 was 16.1 µM (inactive); in the experiment with OVCAR-8 it was 29.3 µM (inactive).
Turning to `Clc1ccc(-c2cc3nc4ccccc4nc3o2)cc1`, the GI50 with HCT-116 was > 100 µM (inactive); in the experiment on RXF 393, 32.5 µM (inactive); with M14, > 100 µM (inactive); with HCT-15 it was greater than 100 µM; in the experiment with SK-MEL-2, > 100 µM (inactive); with UO-31, > 100 µM (inactive). For the same compound, the GI50 in the experiment with UACC-257 is 34.8 µM (inactive); in the experiment on NCI-H460 it was > 100 µM (inactive); in the experiment on 786-0, 37.1 µM (inactive); in the experiment on HL-60, > 100 µM (inactive); in the experiment with TK-10, 32.7 µM (inactive); in the experiment on NCI-H226 it was > 100 µM (inactive). For the same compound, the GI50 was > 100 µM (inactive) in the experiment with Malme-3M; 15.3 µM (inactive) with SNB-75; > 100 µM (inactive) with T47D; > 100 µM (inactive) with OVCAR-4; 53.3 µM (inactive) with SF-539; > 100 µM (inactive) in the experiment with OVCAR-5. Moreover, the GI50 is 58.7 µM (inactive) in the experiment on SF-295 and 32.6 µM (inactive) in the experiment with OVCAR-8.
